Source: patent publication US8163777B2, “Benzimidazolyl-pyridine compounds for inflammation and immune-related uses” (Synta Pharmaceuticals Corp., priority 2006, dated 2012)

The compounds below were run on IL-2 production (assay: Inhibition of IL-2 production in PHA-activated Jurkat cells (ELISA)). Settings: Homo sapiens, PHA 2.5 μg/mL, 20 hours, bin given with mixed units 500 nM-1 μM.
Assay type: cell-based
Method: Jurkat cells were placed in a 96 well plate (0.5 million cells per well in 1% FBS medium) then test compounds of this invention were added at different concentrations. After 10 minutes, the cells were activated with PHA (final concentration 2.5 μg/mL) and incubated for 20 hours at 37° C. under CO2. The final volume was 200 μL. Following incubation, the cells were centrifuged and the supernatants collected and stored at −70° C. prior to assaying for IL-2 production. A commercial ELISA kit (IL-2 Eli-pair, Diaclone Research, Besancon, France) was used to detect production of IL-2, from which dose response curves were obtained. The IC50 value was calculated as the concentration at which 50% of maximum IL-2 production after stimulation was inhibited versus a non-stimulation control.

With `COc1ccc2c(c1)nc(C(F)(F)F)n2-c1ccc(NC(=O)c2ccc(C)cc2C)nc1` [Compound 200, N-[5-(5-Methoxy-2-trifluoromethyl-benzoimidazol-1-yl)-pyridin-2-yl]-2,4-dimethyl-benzamide] the IC50 was 500 to 1000 nM.

Same assay, conditions: Homo sapiens, PHA 2.5 μg/mL, 20 hours, binned values

Compared with `COc1ccc2c(c1)nc(C(F)(F)F)n2-c1ccc(NC(=O)c2ccncc2F)nc1` [Compound 201, 3-Fluoro-N-[5-(5-methoxy-2-trifluoromethyl-benzoimidazol-1-yl)-pyridin-2-yl]-isonicotinamide], `COc1ccc2c(c1)nc(C(F)(F)F)n2-c1ccc(NC(=O)c2cccc(C)c2C)nc1` [Compound 202, N-[5-(5-Methoxy-2-trifluoromethyl-benzoimidazol-1-yl)-pyridin-2-yl]-2,3-dimethyl-benzamide] is lower in IC50: 100 to 500 nM for the first, under 100 nM for the second. The second is the more potent here.

`COc1ccc2c(c1)nc(C(F)(F)F)n2-c1ccc(NC(=O)c2ccc(N(C)C)cc2)nc1` [Compound 203, 4-Dimethylamino-N-[5-(5-methoxy-2-trifluoromethyl-benzoimidazol-1-yl)-pyridin-2-yl]-benzamide] and `COc1ccc2c(c1)nc(C(F)(F)F)n2-c1ccc(NC(=O)c2ccc(C)cc2)nc1` [Compound 211, N-[5-(5-Methoxy-2-trifluoromethyl-benzoimidazol-1-yl)-pyridin-2-yl]-4-methyl-benzamide] cannot be ordered by IC50: over 1000 nM for the first, over 1000 nM for the second.

`COc1cccc(C(=O)Nc2ccc(-n3c(C(F)(F)F)nc4cc(OC)ccc43)cn2)c1` [Compound 204, 3-Methoxy-N-[5-(5-methoxy-2-trifluoromethyl-benzoimidazol-1-yl)-pyridin-2-yl]-benzamide] and `COc1ccc2c(c1)nc(C(F)(F)F)n2-c1ccc(NC(=O)c2cccc(SC)c2)nc1` [Compound 209, N-[5-(5-Methoxy-2-trifluoromethyl-benzoimidazol-1-yl)-pyridin-2-yl]-3-methylsulfanyl-benzamide] cannot be ordered by IC50: over 1000 nM for the first, over 1000 nM for the second.

`COc1ccc2c(c1)nc(C(F)(F)F)n2-c1ccc(NC(=O)c2csnn2)nc1` [Compound 205, [1,2,3]Thiadiazole-4-carboxylic acid [5-(5-methoxy-2-trifluoromethyl-benzoimidazol-1-yl)-pyridin-2-yl]-amide] and `COc1ccc2c(c1)nc(C(F)(F)F)n2-c1ccc(NC(=O)c2ncc[nH]2)nc1` [Compound 216, 1H-Imidazole-2-carboxylic acid [5-(5-methoxy-2-trifluoromethyl-benzoimidazol-1-yl)-pyridin-2-yl]-amide] cannot be ordered by IC50: over 1000 nM for the first, over 1000 nM for the second.

`COc1ccc2c(c1)nc(C(F)(F)F)n2-c1ccc(NC(=O)c2ccccc2OC)nc1` [Compound 206, 2-Methoxy-N-[5-(5-methoxy-2-trifluoromethyl-benzoimidazol-1-yl)-pyridin-2-yl]-benzamide] and `COc1ccc2c(c1)nc(C(F)(F)F)n2-c1ccc(NC(=O)c2cccc(N(C)C)c2)nc1` [Compound 208, 3-Dimethylamino-N-[5-(5-methoxy-2-trifluoromethyl-benzoimidazol-1-yl)-pyridin-2-yl]-benzamide] cannot be ordered by IC50: over 1000 nM for the first, over 1000 nM for the second.

`CCCc1ccc(C(=O)Nc2ccc(-n3c(C(F)(F)F)nc4cc(OC)ccc43)cn2)cc1` [Compound 207, N-[5-(5-Methoxy-2-trifluoromethyl-benzoimidazol-1-yl)-pyridin-2-yl]-4-propyl-benzamide] and `CCc1ccc(C(=O)Nc2ccc(-n3c(C(F)(F)F)nc4cc(OC)ccc43)cn2)cc1` [Compound 215, 4-Ethyl-N-[5-(5-methoxy-2-trifluoromethyl-benzoimidazol-1-yl)-pyridin-2-yl]-benzamide] cannot be ordered by IC50: over 1000 nM for the first, over 1000 nM for the second.

`COc1ccc2c(c1)nc(C(F)(F)F)n2-c1ccc(NC(=O)c2ccc(SC)cc2)nc1` [Compound 210, N-[5-(5-Methoxy-2-trifluoromethyl-benzoimidazol-1-yl)-pyridin-2-yl]-4-methylsulfanyl-benzamide] and `CNCc1ccc(C(=O)Nc2ccc(-n3c(C(F)(F)F)nc4cc(OC)ccc43)cn2)cc1` [Compound 212, N-[5-(5-Methoxy-2-trifluoromethyl-benzoimidazol-1-yl)-pyridin-2-yl]-4-methylaminomethyl-benzamide] cannot be ordered by IC50: over 1000 nM for the first, over 1000 nM for the second.

`COc1ccc2c(c1)nc(C(F)(F)F)n2-c1ccc(NC(=O)C(C)(C)C)nc1` [Compound 213, N-[5-(5-Methoxy-2-trifluoromethyl-benzoimidazol-1-yl)-pyridin-2-yl]-2,2-dimethyl-propionamide] and `COc1ccc2c(c1)nc(C(F)(F)F)n2-c1ccc(NC(=O)C(C)C)nc1` [Compound 214, N-[5-(5-Methoxy-2-trifluoromethyl-benzoimidazol-1-yl)-pyridin-2-yl]-isobutyramide] cannot be ordered by IC50: over 1000 nM for the first, over 1000 nM for the second.

What follows are compounds tested on IL-2, IL-4, IL-5, IL-13, GM-CSF, INF-γ and TNF-α (assay: Inhibition of multiple cytokines in primary human PBMCs (summary statement)). Settings: PHA-stimulated PBMCs.
Assay type: cell-based
Method: Cytokine production was measured using commercially available human ELISA assay kits (from Cell Science, Inc.) following the manufacturers instructions.

For `CC(C)(C)OC(=O)Nc1ccc(C(=O)Nc2ccc(-n3c(C(F)(F)F)nc4ccccc43)cc2)c(F)c1F` [Compound 31, N-(4-{N-[4-(2-trifluoromethyl-benzoimidazol-1-yl)-phenyl]-carbamoyl}-2,3-difluoro-phenyl)-carbamic acid t-butyl ester], the “inhibition of IL-2, IL-4, IL-5, IL-13, GM-CSF, INF-γ and TNF-α (in words)” value (“inhibition” for short) was “potent inhibitors”.
With `CCCCc1ccc(C(=O)Nc2ccc(-n3c(C(F)(F)F)nc4cc(OC)ccc43)cc2)cc1` [Compound 66, 4-Butyl-N-[4-(2-trifluoromethyl-5-methoxy-benzoimidazol-1-yl)-phenyl]-benzamide] the “inhibition” value was “potent inhibitors”.
In the case of `COc1ccc2c(c1)nc(C(F)(F)F)n2-c1ccc(NC(=O)c2ccc3c(c2)OCO3)cc1` [Compound 75, Benzo[1,3]dioxole-5-carboxylic acid {N-[4-(2-trifluoromethyl-5-methoxy-benzoimidazol-1-yl)-phenyl]} amide], the “inhibition” value is reported as “potent inhibitors”.
